One series relates to U266BL cells. As to the kind of experiment: Viability of myeloma cells by trypan blue dye-exclusion assay (U266BL). The class given is cell-based, human. Particulars: 24 hours. The protocol: (§1) In another experiment, the direct effect of the proteasomal inhibitor PSI and other NF-kB inhibitors on the viability in human myeloma cells and 5TGM-1 cells in vitro was evaluated.
(§2) 1×10^6 human myeloma (IM9 and U266BL) cells or 5TGM-1 cells were plated out in the presence and/or absence of PSI and other NF-κB inhibitors. After 24 hours, the viability of the myeloma cells was assessed by the trypan blue dye-exclusion assay. These compounds, at low (submicromolar) concentrations, markedly decrease the viability of both human and murine myeloma cells in culture.

Another series concerns human myeloma IM-9 cells. The series can be described thus: Viability of myeloma cells by trypan blue dye-exclusion assay (IM-9). The class given is cell-based. Particulars: 24 hours. The protocol:
as §1, §2

For series [1], the system named is 5TGM-1 cultured myeloma cells. The series can be described thus: Hind-limb paralysis after intravenous 5TGM-1 myeloma cell inoculation. The class given is in vivo, C57BL/KaLwRij mice. The settings on record: PSI 5 mg/kg/day subcutaneously for 28 days; untreated mice all paralysed by at least day 27. The protocol: Ten (10) C57BL/KaLwRij mice were inoculated intravenously with 1×10^6 5TGM-1 cultured myeloma cells. When untreated, the mice invariably develop hind-limb paralysis after 26-30 days.
One group of five (5) mice were injected with PSI (5 mg/kg/day) subcutaneously over their flank portion for 28 days and the other group received only vehicle. […] All of the untreated mice had developed hind-limb paralysis by at least day 27. In contrast, none of the PSI-treated group developed paraplegia before at least day 33.

Series [2] relates to 5TGM-1 cultured myeloma cells. As to the kind of experiment: PSI injected into subcutaneous 5TGM-1 myeloma tumors in mice. The class given is in vivo, C57BL/KaLwRij mice. The protocol:
Nine (9) C57BL/KaLwRij mice were inoculated with 0.5×10^6 5TGM-1 cultured myeloma cells which were injected subcutaneously over the flank.
One group had PSI injected directly into the tumors (˜5 mg/kg/day) and the other group had only vehicle injected into the tumors.

Another series deals with 5TGM-1 cells. The series can be described thus: Serum tumor marker IgG2b in mice inoculated intravenously with 5TGM-1 cells. The settings on record: PSI 5 mg/kg/day subcutaneously; sera on days 0, 7, 14 and 18. The series is classed as in vivo, C57BL/KwLaRij mice. How it is done: Eight (8) C57BL/KwLaRij mice were each injected with 1×10^6 5TGM-1 cells through the tail vein. They were then randomized into two groups, one group dosed with PSI (5 mg/kg/day subcutaneously) and the other group (untreated control) received only vehicle. Sera were obtained at the start (day 0) and on days 7, 14 and 18 followed by assay for IgG2b.

The next series has as its system 5TGM1 cells. As to the kind of experiment: Viability of myeloma cells by trypan blue dye-exclusion assay (5TGM-1). The class given is cell-based, murine. The settings on record: 100 nM, 24 hours. How it is done: as §1, §2
For series [3] the following is noted: relative to MG-132, MG-115 and MG-341.

Where a SMILES comes first, the peptide text is derived from it. The star is where a group is joined. Cbz = O=C(OCc1ccccc1)*; OtBu = CC(C)(C)O*

One may read the viability as the share of living cells, or the viability signal relative to a control.

Consider `S=C(S)N1CCCC1` [PDTC, 1-pyrrolidine carbothiotic acid], for which the viability entry in the series with U266BL cells (0.1 μM) was “less than 40%”.

`O=C(NC1=CC(=O)c2ccccc2C1=O)c1ccccc1` [PPM-18]: the “effect on viability as compared to control” value in the series on U266BL cells (concentration not given) was “does not appear to affect viability appreciatively”. Besides, in the series on human myeloma IM-9 cells (concentration not given), the effect on viability entry was “relatively ineffective”.

Regarding `CC[C@H](C)[C@H](NC(=O)OCc1ccccc1)C(=O)N[C@@H](CCC(=O)OC(C)(C)C)C(=O)N[C@@H](C)C(=O)N[C@H](C=O)CC(C)C` [PSI, N-carbobenzoyl-Ile-Glu-(OtBu)-Ala-Leu-CHO] (Cbz-IE(OtBu)AL-aldehyde), the “time at which hind-limb paralysis (paraplegia) developed” value in series [1] is at least 33 days. Besides, the viability result with U266BL cells (0.01 μM) was “less than 20%”; in the series with human myeloma IM-9 cells (0.01 μM), “marked diminution in viability”; in the series with 5TGM1 cells, about 0%. For the same compound, in series [2] (4 months after treatment, PSI ~5 mg/kg/day intratumoral), the “survival and signs of tumor” value is “alive and well with no signs of tumor”. Also, the “size of the tumors” value in series [2] (PSI ~5 mg/kg/day injected directly into subcutaneous tumors, treatment commenced on day 35) was “decreased markedly”. Moreover, in series [2] (up until 3 months after tumor inoculation, even though treatment was discontinued, PSI ~5 mg/kg/day intratumoral), the “health of treated mice” value is reported as “remained healthy”. Further, in the series on 5TGM-1 cells, the “tumor marker IgG2b in sera” value was “markedly reduced”.

`C=C(C)[C@]12C[C@@H](C)[C@@]34O[C@](Cc5ccccc5)(O[C@@H]1[C@@H]3C=C(COC(=O)Cc1ccc(O)c(OC)c1)C[C@]1(O)C(=O)C(C)=C[C@@H]41)O2` [resiniferatoxin]: the “activity in the ABA assay” value in series [3] was “less active”.

The values above are taken from patent publication US6492333B1, “Treatment of myeloma bone disease with proteasomal and NF-κB activity inhibitors” (Osteoscreen, Inc., priority 1999, dated 2002).
